Assay results published in ChEMBL document CHEMBL4699405, “TPP-based mitocans: a potent strategy for anticancer drug design” (RSC Med Chem, 2020).

Columns and labels:
[1] = Antitumor activity against human UCI 101 ovarian cells xenografted in BALB/c mouse assessed as survival of mouse at 8 mg/kg, ip qod followed by six doses at 5 mg/kg qod measured upto 180 days (reference value: 0 (50 days)); format: functional; details: UCI101, ip, 4320 h, time 180 day
[2] = tested on: HCT-116; assay: Cytotoxicity against human HCT-116 cells assessed as reduction in cell viability at 10 umol/L incubated for 24 hrs by LDH assay; format: functional; details: HCT-116, 24 h, dose 10 µmol/L
[3] = tested on: DU-145; assay: Cytotoxicity against human DU-145 cells assessed as reduction in cell viability incubated for 24 hrs by SRB assay; format: functional, cell-based; details: DU-145, 24 h
[4] = tested on: MDA-MB-231; assay: Cytotoxicity against human MDA-MB-231 cells assessed as reduction in cell viability incubated for 24 hrs by SRB assay; format: functional, cell-based; details: MDA-MB-231, 24 h
[5] = tested on: SK-N-SH; assay: Cytotoxicity against human SK-N-SH cells assessed as reduction in cell viability incubated for 24 hrs by SRB assay; format: functional, cell-based
[6] = tested on: HeLa; assay: Cytotoxicity against human HeLa cells assessed as reduction in cell viability incubated for 24 hrs by SRB assay; format: functional, cell-based
[7] = tested on: MCF7; assay: Cytotoxicity against human MCF7 cells assessed as reduction in cell viability incubated for 24 hrs by SRB assay; format: functional, cell-based; details: MCF7, 24 h

Structure (SMILES)	survival at 8 mg/kg [1] [%]	inhibition at 10 µM [2] [%]	IC50 [3] [µM]	IC50 [4] [µM]	IC50 [5] [µM]	IC50 [6] [µM]	IC50 [7] [µM]
CN(C)c1ccc([P+](CCCCl)(c2ccc(N(C)C)cc2)c2ccc(N(C)C)cc2)cc1	37.5						
C[n+]1ccc(-c2cc[n+](CCCCCCCCCC[P+](c3ccccc3)(c3ccccc3)c3ccccc3)cc2)cc1		> 50					
COc1cc(/C=C/C(=O)CC(=O)/C=C/c2ccc(OCCC[P+](c3ccccc3)(c3ccccc3)c3ccccc3)c(OC)c2)ccc1O			8.62	8.33	8.19	7.69	5.31
CN(C)c1ccc([P+](CCCI)(c2ccc(N(C)C)cc2)c2ccc(N(C)C)cc2)cc1	12.5						
COc1cc(/C=C/C(=O)CC(=O)/C=C/c2ccc(OCCC[P+](c3ccccc3)(c3ccccc3)c3ccccc3)c(OC)c2)ccc1OCCC[P+](c1ccccc1)(c1ccccc1)c1ccccc1			5.1	5.1	5.12	4.46	2.31
